Experimental findings from publication PMC9136613 (Acta Pharmaceutica Sinica. B, 2022) are described below.

The target of the assay is T1, CCT4 (Homo sapiens, UniProt P50991).
T1 sequence (P50991 2-539): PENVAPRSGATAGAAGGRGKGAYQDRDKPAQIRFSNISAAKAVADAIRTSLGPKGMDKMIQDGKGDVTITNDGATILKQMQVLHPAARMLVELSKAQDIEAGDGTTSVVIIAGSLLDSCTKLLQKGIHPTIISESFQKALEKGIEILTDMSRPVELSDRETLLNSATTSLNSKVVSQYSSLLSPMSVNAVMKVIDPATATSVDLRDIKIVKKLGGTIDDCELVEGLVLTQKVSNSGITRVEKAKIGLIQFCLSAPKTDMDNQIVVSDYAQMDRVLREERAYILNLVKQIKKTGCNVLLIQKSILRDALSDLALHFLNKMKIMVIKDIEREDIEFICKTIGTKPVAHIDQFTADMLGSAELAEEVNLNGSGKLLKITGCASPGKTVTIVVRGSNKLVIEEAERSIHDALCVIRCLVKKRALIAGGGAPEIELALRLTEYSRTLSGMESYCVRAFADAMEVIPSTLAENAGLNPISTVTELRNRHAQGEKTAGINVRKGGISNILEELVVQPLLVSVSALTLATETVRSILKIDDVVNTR
Kind of assay: SPR on immobilized recombinant CCT4. The class given is binding.

anticarin-β: the Kd (as a rule, a measure of binding affinity in units of concentration) is around 2200 nM.
